From the METLIN SMRT retention time set (Domingo-Almenara et al. 2019)

Assay: gradient 5% acetonitrile 3 min, to 50% in 2 min, to 85% in 15 min, held 3 min, 100 µL/min
Details: column: Zorbax Extend-C18 2.1 x 50 mm; eluents: water / acetonitrile, 0.1% formic acid
Method in brief: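 The mobile phases were water and acetonitrile, each with 0.1% formic acid, pumped at 100 μL/min through a Zorbax Extend-C18 column (2.1 × 50 mm, 1.8 μm). Pure standards were injected as mixtures of ~100 molecules and detected by a quadrupole time-of-flight mass spectrometer in positive and negative ionization mode. Retention time came from computationally picked adduct peaks, each inspected by hand.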

CCCC(NC(=O)c1cccc(OC)c1)C(=O)Nc1nc2ccccc2[nH]1 (configuration not stated)
RP-LC retention time: 696 s

CCc1cc(=O)n(CC(=O)Nc2ccccc2)c(-c2ccccc2)n1
RP-LC retention time: 1090 s

COc1ccc(-c2nc(-c3nnn(Cc4ccccc4)c3C)no2)cc1OC
RP-LC retention time: 959 s

CCCN1C(=O)c2c(C(=O)NCCc3ccc(C)cc3)ncn2CC1(C)C(=O)NCCC(C)C (configuration not stated)
RP-LC retention time: 907 s

O=C(Cn1cccc1-c1nnc(C2CCC2)o1)NCc1ccc(F)cc1
RP-LC retention time: 832 s

CCCNC(=O)c1ncn2c1C(=O)N(C1CC1)C(C)(C(=O)NCc1cccc(C)c1)C2 (configuration not stated)
RP-LC retention time: 717 s

COc1ccc2c(c1)C1CC(C)(NC(=O)C1C(=O)c1ccccc1)O2 (configuration not stated)
RP-LC retention time: 758 s

COc1ccc(-c2nc(N3CCCCC3)ncc2C(=O)O)cc1
RP-LC retention time: 923 s

CN1C(=O)COc2ccc(-c3csc(NC(=O)c4ccco4)n3)cc21
RP-LC retention time: 806 s

Cc1cnc(C(=O)N2CCC(n3c(C)cnc3C3CCC3)C2)cn1 (configuration not stated)
RP-LC retention time: 560 s

CCC(=O)N1c2ccc(S(=O)(=O)N3CCCCC3)cc2CC1C(=O)NCCc1ccccc1 (configuration not stated)
RP-LC retention time: 720 s

CCn1cc(S(=O)(=O)N2CCC(Cc3nc(-c4ccncc4)n[nH]3)C2)cn1 (configuration not stated)
RP-LC retention time: 578 s

CCc1nc(OCC(=O)Nc2ccc(Cl)c(C(F)(F)F)c2)c2ccccc2n1
RP-LC retention time: 997 s

CCc1ccc(NC(=O)Cn2nc(C(=O)N3CCCC3)c3ccccc32)cc1
RP-LC retention time: 917 s

O=C(N[C@H]1C[C@@H]2C[C@H]1N(C(=O)Cc1c(F)cccc1Cl)C2)c1ccccc1
RP-LC retention time: 827 s

CCOC(=O)CNc1nc(-c2cccc([N+](=O)[O-])c2)nc2ccccc12
RP-LC retention time: 833 s

O=S(=O)(c1cccc(F)c1)N1CCC(Cc2nncn2-c2ccccc2)C1 (configuration not stated)
RP-LC retention time: 752 s

Cc1noc(C)c1CN1CCC(NC(=O)Cc2ccc(F)cc2)C1 (configuration not stated)
RP-LC retention time: 597 s

COCc1noc(C2CCCCCN2C(=O)NC(C)C)n1 (configuration not stated)
RP-LC retention time: 730 s

O=C(C1CC1)N1CCc2ccc(NS(=O)(=O)/C=C/c3ccccc3)cc21
RP-LC retention time: 819 s

CC(C)CNC(=O)C1CCN(C(=O)c2ncn3c2COC(c2ccccc2)C3)CC1 (configuration not stated)
RP-LC retention time: 702 s

O=C1OC(C(=O)Nc2ccc(F)cc2)Cc2ccc(Cl)cc21 (configuration not stated)
RP-LC retention time: 858 s

Cc1cc(C)cc(NC(=O)CN2C(=O)CSc3ccc(C(=O)N(C)C)cc32)c1
RP-LC retention time: 906 s

Cc1ccn2cc(-c3ccc(NC(=O)Nc4ccccc4)cc3)nc2n1
RP-LC retention time: 640 s

Cc1cccc(NC(=O)C2CCN(S(=O)(=O)c3cc(C(=O)N4CCCC4)n(C)c3)CC2)c1C
RP-LC retention time: 843 s

Cc1ccc(C(=O)Nc2nc(-c3ccccc3)cs2)o1
RP-LC retention time: 973 s

O=C(c1ccsc1)N1CCN(c2nnc3ccc(Cl)cn23)CC1
RP-LC retention time: 615 s

COc1ccc(-c2cn3c(CC(=O)Nc4cccc(C#N)c4)csc3n2)cc1
RP-LC retention time: 756 s

CCc1cccc(NS(=O)(=O)c2cc3n(c2)CCN(C(C)C)C3=O)c1
RP-LC retention time: 816 s

O=C(Cn1nc2c3sc(N4CCCCC4)nc3ncn2c1=O)Nc1ccccc1
RP-LC retention time: 768 s

COC(=O)c1ccc2c(=O)n(Cc3ccc(F)cc3)c(N3CCCCC3)nc2c1
RP-LC retention time: 1210 s

CCCCCC[C@H]1C(=O)O[C@H](C)[C@H](NC(=O)c2cccc(NC=O)c2O)C(=O)O[C@@H](C)[C@@H]1OC(=O)CC(C)C
RP-LC retention time: 1100 s

COC(=O)c1ccc(NC(=O)CN2CCc3[nH]c4c(F)c(Cl)ccc4c(=O)c3C2)cc1
RP-LC retention time: 630 s

Cc1ccc(S(=O)(=O)N(C)C)cc1-c1nnc(-c2ccc(Cl)cc2)o1
RP-LC retention time: 1080 s

CCOCCCNC(=O)c1ccc2c(c1)nc1n2CCCCC1
RP-LC retention time: 588 s

CCN(Cc1ccccc1)C(=O)Cn1nc(C)c2sc(-c3ccccc3)nc2c1=O
RP-LC retention time: 1000 s

CN1c2ccc(F)cc2C(=O)NC12CCN(C(=O)c1ccc(F)c(F)c1)CC2
RP-LC retention time: 776 s

O=C(NCc1ccc2c(c1)OCO2)C1CC(=O)N(CCc2c[nH]c3ccc(F)cc23)C1 (configuration not stated)
RP-LC retention time: 766 s

COc1ccc(-n2ccc(=O)c(-c3nc(-c4ccccc4OCc4ccccc4)no3)n2)cc1
RP-LC retention time: 984 s

Cc1cc(C)n2nc(CN(C(=O)c3cccs3)c3ccc(F)cc3)nc2n1
RP-LC retention time: 779 s

O=C([C@@H]1C[C@H](F)CN1S(=O)(=O)c1cccc(F)c1)N1CCc2ccccc2C1
RP-LC retention time: 920 s

CC(C)NC(=O)CCCN1C(=O)c2ccccc2Sc2ncccc21
RP-LC retention time: 674 s

CC(C)Cn1nc(CNC(=O)c2ccsc2)c2ccccc21
RP-LC retention time: 882 s

O=C(COc1ccccc1F)NC1CCCCC1N1C(=O)CSC1=O (configuration not stated)
RP-LC retention time: 768 s

CCc1nnc2cc(N3CCN(C(=O)c4ccc(C(C)C)cc4)CC3)cnn12
RP-LC retention time: 731 s

Cc1ccccc1-c1cc(C(=O)N2CCC(NC(=O)C3CCCC3)CC2)[nH]n1
RP-LC retention time: 712 s

CCOC(=O)c1nc(N(C)c2ccccc2C)c2ccccc2n1
RP-LC retention time: 916 s

COCCNc1nc(-c2ccc(OC)cc2)nc2ccccc12
RP-LC retention time: 644 s

O=C(Cn1cnc2ccccc2c1=O)N[C@@H](C(=O)O)c1ccc(O)cc1
RP-LC retention time: 589 s

Cc1cc(C)cc(N2CCC(NC(=O)Nc3cccc(F)c3C)C2=O)c1 (configuration not stated)
RP-LC retention time: 938 s

Cc1nc(-c2cc(S(=O)(=O)NCC(=O)N3CCN(c4cccc(Cl)c4)CC3)c(C)s2)no1
RP-LC retention time: 829 s

Cc1sc2ccn(CC(C)C)c(=O)c2c1C(=O)NCCN1CCN(C)CC1
RP-LC retention time: 574 s

O=C(CC1CCN(C(=O)Nc2ccccc2Cl)CC1)N1CCCCC1
RP-LC retention time: 806 s

Cn1nc(C(=O)N2CCCC2)c2c1CCN(C(=O)CCC(=O)NC1CCCCCC1)C2
RP-LC retention time: 696 s

CCCCN(C)C(=O)c1ccc2c(c1)NC(=O)C(CC(C)C)N2 (configuration not stated)
RP-LC retention time: 581 s

O=C(N[C@H](Cc1ccccc1)C(=O)NCc1cscn1)c1cccc(F)c1
RP-LC retention time: 762 s

COC(=O)c1ccc(C(=O)OC)c(NC(=O)N2CCC(CN3CCC(C)CC3)CC2)c1
RP-LC retention time: 678 s

Cc1ccc(NC(=O)Cn2c(C(C)C)nc3c(c2=O)CCN(Cc2ccccc2)C3)cc1F
RP-LC retention time: 740 s

Cc1ccc(NS(=O)(=O)c2cc3c(s2)CCN(C(=O)C2CCC2)C3)cc1F
RP-LC retention time: 911 s

COc1ccc(Cl)cc1NC(=O)CSc1nnc2c3cc(-c4ccc(C)cc4)nn3ccn12
RP-LC retention time: 1040 s

Cc1ccc(NC(=O)Cc2c(C)nn(-c3nc(-c4ccc(C)cc4)cs3)c2C)cc1
RP-LC retention time: 1270 s

Cc1nnc(N2CCCC(C(=O)N3CCN(c4ccccn4)CC3)C2)c2nn(-c3ccccc3)c(C)c12 (configuration not stated)
RP-LC retention time: 584 s

O=C(Nc1ccc2ccccc2c1)N1CCN(c2ncc(C(F)(F)F)cc2Cl)CC1
RP-LC retention time: 1110 s

O=S(=O)(NC1CCCCCC1)c1ccc(-c2nnc(C3CCCC3)o2)o1
RP-LC retention time: 1080 s

Cc1ccc(NC(=O)N2CCc3nc(-c4ccc(F)cc4)ncc3C2)cc1C
RP-LC retention time: 1020 s

Cc1csc(C(=O)Nc2nnc(SCC(=O)Nc3cccnc3)s2)c1
RP-LC retention time: 597 s

FC1(c2nc(Cc3ccccc3)no2)CCN(Cc2ccsc2)CC1
RP-LC retention time: 708 s

O=C(c1ccncc1)N1CCCn2nc(-c3cccs3)cc2C1
RP-LC retention time: 642 s

Cc1c(CNCCCN2CCCC2=O)c(C(=O)O)c(C)n1Cc1cccc(Cl)c1
RP-LC retention time: 665 s

CCN1C(=O)COc2ccc(-c3noc(-c4cccc(NC(C)=O)c4)n3)cc21
RP-LC retention time: 848 s

O=C(c1ccn[nH]1)N1C[C@@H]2C(=O)N(CCc3ccccc3)C(=O)[C@@H]2C1
RP-LC retention time: 656 s

O=C(Nc1ccccc1)C1CCCN(S(=O)(=O)Cc2ccccc2)C1 (configuration not stated)
RP-LC retention time: 940 s

CN(C)C(=O)c1cc2c(s1)CCC(C(=O)NC1CCCCC1)C2 (configuration not stated)
RP-LC retention time: 748 s

Cc1nc(-c2csc(S(=O)(=O)N3CCC(C(=O)NCc4ccccc4Cl)CC3)c2)no1
RP-LC retention time: 895 s

Cc1nccn1Cc1noc(-c2ccccc2Cl)n1
RP-LC retention time: 615 s

CCCn1cc(S(=O)(=O)Nc2ccccc2)c2cccnc21
RP-LC retention time: 838 s

CCOC(=O)C1CCN(c2cc3c(cc2NC(=O)CC2CCCCC2)n(C)c(=O)c(=O)n3C)CC1
RP-LC retention time: 981 s

Cc1csc(-c2cn(CC(=O)NCc3cccc(C(F)(F)F)c3)cn2)n1
RP-LC retention time: 716 s

CCOc1ccc(-c2cc3c(=O)n(Cc4nc(-c5ccc(C)c(C)c5)no4)ncn3n2)cc1
RP-LC retention time: 1260 s

CCC1CCCCN1C(=O)c1cnc2nc(C)ccc2c1Nc1ccc(OC)c(Cl)c1 (configuration not stated)
RP-LC retention time: 668 s

Cn1nccc1-c1cccc(-c2noc(CNC(=O)Cc3ccc(Cl)cc3)n2)c1
RP-LC retention time: 871 s

COc1ccc(NC(=O)CSc2nnc3c4cc(-c5ccc(Cl)cc5)nn4ccn23)c(OC)c1
RP-LC retention time: 951 s

CCCNc1cc(N2CCC(CCC(=O)NCc3ccc(OC)cc3)CC2)ncn1
RP-LC retention time: 657 s

O=C(O)c1cccc(-c2noc(-c3ccccc3F)n2)c1
RP-LC retention time: 964 s

Cc1cccc(CC(=O)N2C[C@@H]3C[C@H](NC(=O)c4ccccc4)[C@H]2C3)c1
RP-LC retention time: 794 s

COc1ccc(OC)c(-c2csc(-c3nnn(-c4ccc(C)c(C)c4)c3N)n2)c1
RP-LC retention time: 1230 s

COc1cc(Nc2nc(C(=O)N3CCCCC3)cc3occc23)cc(OC)c1OC
RP-LC retention time: 808 s
